# Assays:
# [1] = Intrinsic clearance in rat liver microsome; assay type: ADME; conditions: liver microsomes
# [2] = Binding affinity to human recombinant nicotinic (CNS) receptor
# Plasmodium falciparum [3] = assay: Antimalarial activity against Plasmodium falciparum assessed as […] by SYBR green based fluorescence assay; assay type: functional, organism-based; conditions: Plasmodium falciparum
# Plasmodium berghei [4] = assay: Antimalarial activity against Plasmodium berghei GFP ANKA infected in NMRI mice (Mus musculus) assessed as cure rate at 30 mg/kg, perorally administered as single dose 24 hrs post infection for 1 day measured 30 days post infection; assay type: functional; conditions: route oral
# [5] = target: Beta-1 adrenergic receptor (Homo sapiens, UniProt P08588); assay: Binding affinity to human recombinant adrenergic beta-1 receptor
# Melanocortin receptor 3 = Melanocortin receptor 3 (Homo sapiens, UniProt P41968); assay: Binding affinity to human recombinant melanocortin MC3 receptor
# D(2) dopamine receptor = D(2) dopamine receptor (Homo sapiens, UniProt P14416); assay: Binding affinity to human recombinant dopamine D2 receptor
# [6] = Clearance in Wistar rat at 5 mg/kg, iv; assay type: ADME, organism-based; parameters: dose 5 mg/kg, route intravenous; conditions: in vivo
# Plasmodium berghei [7] = assay: Antimalarial activity against Plasmodium berghei GFP ANKA infected in NMRI mice (Mus musculus) assessed as cure rate at 30 mg/kg, perorally administered through 0.5% MCM/0.1%solutol HS15 formulation 24 hrs post infection for 3 days measured on day 30 post infection; assay type: functional; conditions: route oral
# Plasmodium berghei [8] = assay: Antimalarial activity against Plasmodium berghei GFP ANKA infected in NMRI mice (Mus musculus) assessed as cure rate at 10 mg/kg, perorally administered through 0.5% MCM/0.1%solutol HS15 formulation 24 hrs post infection for 3 days measured on day 30 post infection; assay type: functional; conditions: route oral
# Plasmodium falciparum [9] = assay: Antimalarial activity against pyrimethamine-resistant Plasmodium falciparum 7G8 after 48 hrs incubation by [3H]hypoxanthine incorporation assay
# D(4) dopamine receptor = D(4) dopamine receptor (Homo sapiens, UniProt P21917); assay: Binding affinity to human recombinant dopamine D4.4 receptor
# [10] = AUC (0 to infinity) in Wistar rat at 23.7 mg/kg, po; assay type: ADME, organism-based; parameters: time infinity, dose 23.7 mg/kg, route oral; conditions: plasma
# [11] = Clearance in CD1 mouse at 5.4 mg/kg, iv; assay type: ADME, organism-based; parameters: dose 5.4 mg/kg, route intravenous; conditions: in vivo
# [12] = Intrinsic clearance in monkey liver microsome; assay type: ADME, Macaca mulatta; conditions: rhesus monkey, liver microsomes
# [13] = target: Alpha-2C adrenergic receptor (Homo sapiens, UniProt P18825); assay: Binding affinity to human recombinant alpha2c receptor
# Substance-P receptor = Substance-P receptor (Homo sapiens, UniProt P25103); assay: Binding affinity to human recombinant neurokinin NK1 receptor
# Plasmodium falciparum [14] = assay: microbe, parasite or virus in culture; conditions: Dd2, 72 h
# [15] = target: Corticotropin-releasing factor receptor 2 (Homo sapiens, UniProt Q13324); assay: Binding affinity to human recombinant CRF2alpha receptor
# [16] = AUC (0 to infinity) in CD1 mouse at 24.6 mg/kg, po; assay type: ADME, organism-based; parameters: time infinity, dose 24.6 mg/kg, route oral; conditions: plasma
# [17] = AUC (0 to infinity) in Wistar rat at 5 mg/kg, iv; assay type: ADME, organism-based; parameters: time infinity, dose 5 mg/kg, route intravenous; conditions: plasma
# Plasmodium falciparum [18] = assay: Antimalarial activity against Plasmodium falciparum Dd2 after 72 hrs by SYBR green based fluorescence assay; assay type: functional, organism-based; conditions: Dd2, 72 h
# [19] = target: 5-hydroxytryptamine receptor 2C (Homo sapiens, UniProt P28335); assay: Binding affinity to human recombinant serotonin 5HT2C receptor
# [20] = target: Muscarinic acetylcholine receptor M3 (Homo sapiens, UniProt P20309); assay: Binding affinity to human recombinant muscarinic M3 receptor
# [21] = Intrinsic clearance in dog liver microsome; assay type: ADME, Canis lupus familiaris; conditions: liver microsomes
# [22] = target: 3',5'-cyclic-AMP phosphodiesterase 4D (Homo sapiens, UniProt Q08499); assay: Binding affinity to human recombinant PDE4D
# [23] = target: Alpha-1A adrenergic receptor (Homo sapiens, UniProt P35348); assay: Binding affinity to human recombinant alpha 1a receptor
# hERG (KCNH2) = hERG (KCNH2) (Homo sapiens, UniProt Q12809); assay: Inhibition of human ERG at 30 uM by patch clamp method
# [24] = target: Voltage-gated inwardly rectifying potassium channel KCNH2 (Homo sapiens, UniProt Q12809); assay: Inhibition of human ERG by patch clamp method
# [25] = Cytotoxicity against human HepG2 cells after 4 days by XTT assay; assay type: cell-based
# [26] = target: Muscarinic acetylcholine receptor M1 (Homo sapiens, UniProt P11229); assay: Binding affinity to human recombinant muscarinic M1 receptor
# [27] = target: Beta-3 adrenergic receptor (Homo sapiens, UniProt P13945); assay: Binding affinity to human recombinant adrenergic beta3 receptor
# [28] = target: Kappa-type opioid receptor (Homo sapiens, UniProt P41145); assay: Binding affinity to human recombinant opiate kappa receptor
# [29] = target: Endothelin receptor type B (Homo sapiens, UniProt P24530); assay: Binding affinity to human recombinant endothelin B receptor
# Motilin receptor = Motilin receptor (Homo sapiens, UniProt O43193); assay: Binding affinity to human recombinant motilin receptor
# Cannabinoid receptor 1 = Cannabinoid receptor 1 (Homo sapiens, UniProt P21554); assay: Binding affinity to human recombinant cannabinoid 1 receptor
# Plasmodium berghei [30] = assay: Antimalarial activity against Plasmodium berghei GFP ANKA infected in NMRI mice (Mus musculus) assessed as reduction in parasitaemia at 30 mg/kg, perorally administered through 0.5% MCM/0.1%solutol HS15 formulation 24 hrs post infection for 3 days measured 96 hrs post infection; assay type: functional; parameters: scale not given: the % may be the effect or the level left; conditions: route oral
# Plasmodium falciparum [31] = assay: microbe, parasite or virus in culture; conditions: Dd2, 72 h; remark: listed apart in the source
# [32] = Oral bioavailability in Wistar rat at 23.7 mg/kg; assay type: ADME, organism-based; conditions: in vivo
# [33] = target: Voltage-gated L-type calcium channel (Rattus norvegicus, UniProt P22002+Q02485+P27732); assay: Binding affinity to rat L-type calcium channel
# Histamine H3 receptor = Histamine H3 receptor (Homo sapiens, UniProt Q9Y5N1); assay: Binding affinity to human recombinant histamine H3 receptor
# [34] = target: Cholecystokinin receptor type A (Homo sapiens, UniProt P32238); assay: Binding affinity to human recombinant cholecystokinin A receptor
# [35] = target: Glutamate [NMDA] receptor; assay: Binding affinity to human recombinant NMDA receptor
# Plasmodium falciparum [36] = assay: Inhibition of protein synthesis in NITD609-resistant Plasmodium falciparum Dd2 Clone3 within 1 hrs by [35S]Met/Cys incorporation assay; assay type: functional
# Plasmodium berghei [37] = assay: Antimalarial activity against Plasmodium berghei GFP ANKA infected in NMRI mice (Mus musculus) assessed as survival at 10 mg/kg, perorally administered through 0.5% MCM/0.1%solutol HS15 formulation 24 hrs post infection for 3 days measured 96 hrs post infection; assay type: functional; conditions: route oral
# [38] = Volume of distribution at steady state in CD1 mouse at 5.4 mg/kg, iv; assay type: ADME, organism-based; parameters: dose 5.4 mg/kg, route intravenous; conditions: in vivo, read-out: Vdss
# [39] = target: Sodium-dependent serotonin transporter (Homo sapiens, UniProt P31645); assay: Binding affinity to human recombinant serotonin transporter
# Plasmodium berghei [40] = assay: Antimalarial activity against Plasmodium berghei GFP ANKA infected in NMRI mice (Mus musculus) assessed as reduction in parasitaemia at 10 mg/kg, perorally administered through 0.5% MCM/0.1%solutol HS15 formulation 24 hrs post infection for 3 days measured 96 hrs post infection; assay type: functional; parameters: scale not given: the % may be the effect or the level left; conditions: route oral
# Sequence of Corticotropin-releasing factor receptor 2 (Q13324 whole entry): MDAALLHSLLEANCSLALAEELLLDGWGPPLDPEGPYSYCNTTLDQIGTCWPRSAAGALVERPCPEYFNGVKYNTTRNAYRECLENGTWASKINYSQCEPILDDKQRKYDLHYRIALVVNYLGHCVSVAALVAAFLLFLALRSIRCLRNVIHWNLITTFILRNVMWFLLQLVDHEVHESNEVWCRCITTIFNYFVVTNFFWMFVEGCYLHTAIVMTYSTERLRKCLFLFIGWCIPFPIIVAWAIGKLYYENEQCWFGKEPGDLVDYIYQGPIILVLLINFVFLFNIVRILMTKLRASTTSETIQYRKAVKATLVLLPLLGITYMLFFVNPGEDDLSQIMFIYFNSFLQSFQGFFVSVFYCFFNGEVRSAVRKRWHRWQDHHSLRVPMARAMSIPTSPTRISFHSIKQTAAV
# Sequence of Muscarinic acetylcholine receptor M3 (P20309 whole entry): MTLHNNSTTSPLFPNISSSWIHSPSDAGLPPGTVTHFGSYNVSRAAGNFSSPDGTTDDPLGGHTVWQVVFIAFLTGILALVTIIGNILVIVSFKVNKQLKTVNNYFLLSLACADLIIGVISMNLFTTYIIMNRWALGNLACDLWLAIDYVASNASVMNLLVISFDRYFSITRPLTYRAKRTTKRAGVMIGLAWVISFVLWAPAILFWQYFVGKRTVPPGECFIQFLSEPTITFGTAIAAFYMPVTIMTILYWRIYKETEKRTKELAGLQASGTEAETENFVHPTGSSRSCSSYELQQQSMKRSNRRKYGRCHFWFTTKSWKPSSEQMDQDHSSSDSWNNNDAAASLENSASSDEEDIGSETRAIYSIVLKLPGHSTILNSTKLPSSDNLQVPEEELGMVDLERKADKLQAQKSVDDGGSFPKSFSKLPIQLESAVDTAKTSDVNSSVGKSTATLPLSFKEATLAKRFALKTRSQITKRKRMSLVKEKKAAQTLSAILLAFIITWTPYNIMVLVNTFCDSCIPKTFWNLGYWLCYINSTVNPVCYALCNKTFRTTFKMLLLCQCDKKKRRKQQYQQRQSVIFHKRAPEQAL
# Sequence of Alpha-1A adrenergic receptor (P35348 whole entry): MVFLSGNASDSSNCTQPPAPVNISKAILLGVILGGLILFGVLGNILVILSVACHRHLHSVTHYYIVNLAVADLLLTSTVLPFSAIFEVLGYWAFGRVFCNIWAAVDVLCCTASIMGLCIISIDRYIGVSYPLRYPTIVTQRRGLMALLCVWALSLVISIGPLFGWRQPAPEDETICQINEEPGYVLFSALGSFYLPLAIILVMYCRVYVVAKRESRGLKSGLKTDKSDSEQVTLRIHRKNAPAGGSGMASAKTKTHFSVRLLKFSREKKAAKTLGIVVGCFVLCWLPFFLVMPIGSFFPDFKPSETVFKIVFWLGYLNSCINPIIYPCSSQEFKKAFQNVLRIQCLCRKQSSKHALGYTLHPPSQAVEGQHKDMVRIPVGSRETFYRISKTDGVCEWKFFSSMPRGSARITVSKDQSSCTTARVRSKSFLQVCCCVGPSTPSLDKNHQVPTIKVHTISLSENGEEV
# Sequence of Substance-P receptor (P25103 whole entry): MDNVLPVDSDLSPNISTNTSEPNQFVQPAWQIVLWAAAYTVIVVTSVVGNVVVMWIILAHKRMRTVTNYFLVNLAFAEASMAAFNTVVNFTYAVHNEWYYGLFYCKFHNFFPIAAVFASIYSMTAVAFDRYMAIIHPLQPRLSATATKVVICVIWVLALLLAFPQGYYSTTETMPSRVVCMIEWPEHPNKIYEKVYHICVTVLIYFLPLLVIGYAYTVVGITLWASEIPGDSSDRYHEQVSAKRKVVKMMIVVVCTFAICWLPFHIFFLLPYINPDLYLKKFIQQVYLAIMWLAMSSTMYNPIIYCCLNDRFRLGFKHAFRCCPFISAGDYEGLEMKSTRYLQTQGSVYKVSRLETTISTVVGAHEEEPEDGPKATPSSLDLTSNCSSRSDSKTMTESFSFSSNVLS
# Sequence of Cannabinoid receptor 1 (P21554 whole entry): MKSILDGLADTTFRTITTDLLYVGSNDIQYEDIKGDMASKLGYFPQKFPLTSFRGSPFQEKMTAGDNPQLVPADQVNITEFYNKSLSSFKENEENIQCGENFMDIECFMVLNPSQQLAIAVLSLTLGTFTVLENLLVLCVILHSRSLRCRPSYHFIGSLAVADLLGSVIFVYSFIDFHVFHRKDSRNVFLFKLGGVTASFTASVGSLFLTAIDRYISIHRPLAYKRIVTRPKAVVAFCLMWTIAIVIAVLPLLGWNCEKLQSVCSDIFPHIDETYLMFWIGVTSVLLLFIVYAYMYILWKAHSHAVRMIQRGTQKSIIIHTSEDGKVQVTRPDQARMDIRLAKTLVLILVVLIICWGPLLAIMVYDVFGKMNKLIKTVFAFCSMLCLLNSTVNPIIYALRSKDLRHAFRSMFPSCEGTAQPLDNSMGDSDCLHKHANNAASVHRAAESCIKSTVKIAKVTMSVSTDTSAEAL
# Sequence of Beta-3 adrenergic receptor (P13945 whole entry): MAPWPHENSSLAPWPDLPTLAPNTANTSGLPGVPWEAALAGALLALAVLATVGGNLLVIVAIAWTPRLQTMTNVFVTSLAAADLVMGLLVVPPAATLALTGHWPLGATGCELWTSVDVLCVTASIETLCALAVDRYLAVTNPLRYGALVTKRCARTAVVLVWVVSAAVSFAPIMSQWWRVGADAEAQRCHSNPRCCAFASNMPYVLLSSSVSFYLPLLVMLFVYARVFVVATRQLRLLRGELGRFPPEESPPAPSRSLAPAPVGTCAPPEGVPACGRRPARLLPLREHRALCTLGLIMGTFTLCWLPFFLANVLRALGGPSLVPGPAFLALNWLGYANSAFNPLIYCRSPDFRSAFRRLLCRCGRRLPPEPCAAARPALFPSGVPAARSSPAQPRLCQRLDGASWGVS
# Sequence of D(2) dopamine receptor (P14416 whole entry): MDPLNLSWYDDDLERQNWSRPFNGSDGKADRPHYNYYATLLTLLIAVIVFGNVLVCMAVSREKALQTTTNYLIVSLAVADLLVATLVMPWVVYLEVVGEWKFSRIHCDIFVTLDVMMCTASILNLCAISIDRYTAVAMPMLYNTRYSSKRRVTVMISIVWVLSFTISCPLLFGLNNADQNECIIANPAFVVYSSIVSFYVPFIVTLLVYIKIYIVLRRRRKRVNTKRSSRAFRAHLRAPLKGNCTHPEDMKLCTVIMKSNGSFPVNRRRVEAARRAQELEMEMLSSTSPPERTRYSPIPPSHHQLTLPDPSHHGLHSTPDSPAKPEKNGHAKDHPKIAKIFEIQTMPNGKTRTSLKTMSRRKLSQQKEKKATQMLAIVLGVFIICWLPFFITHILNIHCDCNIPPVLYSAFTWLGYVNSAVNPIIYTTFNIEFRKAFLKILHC
# Sequence of Endothelin receptor type B (P24530 whole entry): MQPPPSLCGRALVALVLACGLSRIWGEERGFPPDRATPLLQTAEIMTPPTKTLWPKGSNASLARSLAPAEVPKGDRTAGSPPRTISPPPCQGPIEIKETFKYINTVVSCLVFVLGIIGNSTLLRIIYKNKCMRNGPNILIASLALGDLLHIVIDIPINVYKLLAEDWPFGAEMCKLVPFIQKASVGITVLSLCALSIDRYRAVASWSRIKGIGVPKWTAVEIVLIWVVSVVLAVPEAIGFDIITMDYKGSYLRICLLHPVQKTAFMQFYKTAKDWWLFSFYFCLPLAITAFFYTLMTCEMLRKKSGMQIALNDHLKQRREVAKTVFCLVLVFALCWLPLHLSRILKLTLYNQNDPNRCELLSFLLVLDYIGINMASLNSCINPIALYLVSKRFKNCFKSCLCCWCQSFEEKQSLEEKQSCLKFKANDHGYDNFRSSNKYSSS
# Sequence of Beta-1 adrenergic receptor (P08588 whole entry): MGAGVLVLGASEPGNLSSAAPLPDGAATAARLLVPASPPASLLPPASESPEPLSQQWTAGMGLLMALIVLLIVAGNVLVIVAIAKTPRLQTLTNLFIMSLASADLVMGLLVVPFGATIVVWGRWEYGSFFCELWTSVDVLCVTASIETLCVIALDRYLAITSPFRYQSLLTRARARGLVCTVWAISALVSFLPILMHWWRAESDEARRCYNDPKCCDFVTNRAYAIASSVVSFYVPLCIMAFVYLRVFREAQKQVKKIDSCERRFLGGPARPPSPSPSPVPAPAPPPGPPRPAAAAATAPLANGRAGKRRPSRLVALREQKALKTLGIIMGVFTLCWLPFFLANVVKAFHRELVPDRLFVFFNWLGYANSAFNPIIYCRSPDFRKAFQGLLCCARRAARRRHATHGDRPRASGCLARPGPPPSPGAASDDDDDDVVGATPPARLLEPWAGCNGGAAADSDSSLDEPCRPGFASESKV
# Sequence of Melanocortin receptor 3 (P41968 whole entry): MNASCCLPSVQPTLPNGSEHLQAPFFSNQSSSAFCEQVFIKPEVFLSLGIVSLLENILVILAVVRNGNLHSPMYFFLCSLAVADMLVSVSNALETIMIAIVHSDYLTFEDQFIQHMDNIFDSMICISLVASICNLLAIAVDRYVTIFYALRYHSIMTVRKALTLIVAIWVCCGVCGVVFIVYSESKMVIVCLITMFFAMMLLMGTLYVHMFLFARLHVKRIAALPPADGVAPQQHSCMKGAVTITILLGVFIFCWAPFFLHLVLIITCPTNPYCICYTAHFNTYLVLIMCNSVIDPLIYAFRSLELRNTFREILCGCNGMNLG
# Sequence of Kappa-type opioid receptor (P41145 whole entry): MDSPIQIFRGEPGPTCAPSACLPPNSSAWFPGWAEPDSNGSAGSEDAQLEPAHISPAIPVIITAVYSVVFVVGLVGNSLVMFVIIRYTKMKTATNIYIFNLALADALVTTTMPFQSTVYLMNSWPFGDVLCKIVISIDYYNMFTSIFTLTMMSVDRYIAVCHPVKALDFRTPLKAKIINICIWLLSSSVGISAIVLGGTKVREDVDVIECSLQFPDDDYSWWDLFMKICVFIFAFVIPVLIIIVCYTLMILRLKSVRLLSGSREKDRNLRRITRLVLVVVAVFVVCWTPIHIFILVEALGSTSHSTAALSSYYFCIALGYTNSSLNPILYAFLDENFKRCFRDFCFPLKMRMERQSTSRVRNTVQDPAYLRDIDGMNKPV
smiles,measurement,setting,value
C[C@H]1Cc2c([nH]c3cc(Cl)c(F)cc23)[C@@]2(N1)C(=O)Nc1ccc(Cl)cc12 [CIPARGAMIN],CLint scaled,[1],5.8 mL/min/kg
same,IC50,[2],> 10 µM
same,IC50,Plasmodium falciparum [3],0.0005 µM
same,Activity,Plasmodium berghei [4],50%
same,IC50,[5],> 10 µM
same,IC50,Melanocortin receptor 3,> 30 µM
same,IC50,D(2) dopamine receptor,> 10 µM
same,clearance,[6],3.48 mL/min/kg
same,Activity,Plasmodium berghei [7],90%
same,Activity,Plasmodium berghei [8],50%
same,IC50,Plasmodium falciparum [9],0.0012 µM
same,IC50,D(4) dopamine receptor,> 10 µM
same,AUC(0-inf),[10],524 µM·h
same,clearance,[11],9.75 mL/min/kg
same,CLint scaled,[12],6.05 mL/min/kg
same,IC50,[13],> 10 µM
same,IC50,Substance-P receptor,> 10 µM
same,IC50,Plasmodium falciparum [14],0.00189 µM
same,IC50,[15],> 30 µM
same,AUC(0-inf),[16],139 µM·h
same,AUC(0-inf),[17],61.3 µM·h
same,IC50,Plasmodium falciparum [18],0.00044 µM
same,IC50,[19],> 10 µM
same,IC50,[20],> 10 µM
same,CLint scaled,[21],22.1 mL/min/kg
same,IC50,[22],> 10 µM
same,IC50,[23],> 10 µM
same,inhibition at 30 µM,hERG (KCNH2),44.9%
same,IC50,[24],> 30 µM
same,CC50 at 96 h,[25],> 25 µM
same,IC50,[26],> 10 µM
same,IC50,[27],> 30 µM
same,IC50,[28],> 10 µM
same,IC50,[29],> 30 µM
same,IC50,Motilin receptor,> 10 µM
same,IC50,Cannabinoid receptor 1,> 10 µM
same,Activity,Plasmodium berghei [30],99.8%
same,IC50,Plasmodium falciparum [31],0.0039 µM
same,bioavailability,[32],100%
same,IC50,[33],> 10 µM
same,IC50,Histamine H3 receptor,> 10 µM
same,IC50,[34],> 30 µM
same,IC50,[35],> 10 µM
same,inhibition (INH),Plasmodium falciparum [36],50%
same,Survival,Plasmodium berghei [37],24.4 days
same,Vd,[38],2.11 L/kg
same,IC50,[39],> 10 µM
